From ChEMBL document CHEMBL1156829 (Proc Natl Acad Sci U S A, 2008)

What was measured:
Plasmodium falciparum [1] = assay: NOVARTIS: Inhibition of Plasmodium falciparum 3D7 (drug-susceptible) proliferation in erythrocyte-based infection assay; assay type: functional, organism-based; conditions: Plasmodium falciparum, 3D7
Plasmodium falciparum [2] = assay: NOVARTIS: Inhibition of Plasmodium falciparum W2 (drug-resistant) proliferation in erythrocyte-based infection assay; assay type: functional, organism-based; conditions: Plasmodium falciparum, W2; read-out: EC50
[3] = NOVARTIS: Cytotoxicity against human hepatocellular carcinoma cell line (Huh7); assay type: toxicity, cell-based, Huh-7; conditions: Huh7 cells (hepatocellular carcinoma cell line)

Row | SMILES | EC50 (Plasmodium falciparum [1]) | EC50 (Plasmodium falciparum [2]) | CC50 [3]
1 | CN(C)c1cc[n+](CC(=O)Nc2ccc(Cl)cc2)cc1 | 549 nM | 897 nM | > 100000 nM
2 | O=C1C(=Cc2ccccc2)Oc2c1ccc(O)c2CN1CCCCC1 | 1420 nM | 91 nM | > 100000 nM
3 | CCc1ccc2ncc(C(=O)OCCOC)c(O)c2c1 | 777 nM | 1620 nM | > 100000 nM
4 | Cc1cccc(-n2ccnc2SCC(=O)Nc2cc(C(F)(F)F)ccc2Cl)c1 | 541 nM | 1470 nM | > 100000 nM
5 | CCCN1/C(=C/c2sc3ccccc3[n+]2CC)C=Cc2ccccc21 | 820 nM | 1340 nM | > 10000 nM
6 | CCC(c1nc2ccccc2c(=O)n1-c1ccc(F)c(Cl)c1)N(CCc1ccccc1)C(=O)COc1ccccc1 (configuration not stated) | 1190 nM | > 492 nM | > 6280 nM
7 | Cc1ccnc(NC(c2ccc(Cl)cc2Cl)c2ccc3cccnc3c2O)c1 (configuration not stated) | 296 nM | 120 nM | 60100 nM
8 | COc1ccc(/C=C2\N=C(c3ccc(Cl)cc3)N(c3cc(Cl)ccc3C)C2=O)cc1OC | > 1250 nM | > 949 nM | > 10000 nM
9 | COc1ccc(-c2csc(Nc3cccc(Cl)c3C)n2)cc1OC | 8210 nM | 355 nM | > 89300 nM
10 | COc1cc(NC(=O)/C=C/c2ccccc2Cl)cc(OC)c1OC | 862 nM | 1060 nM | > 10000 nM
11 | O=C(CCC1CCCN(C(=O)c2ccsc2)C1)N1CCN(c2ccccn2)CC1 (configuration not stated) | > 1250 nM | > 1100 nM | > 10000 nM
12 | O=C(c1cc2nc(-c3ccccc3)cc(C(F)(F)F)n2n1)N1CCN(Cc2ccccc2)CC1 | 2920 nM | 4590 nM | > 100000 nM
13 | CCOc1ccc(-n2nc(C(=O)NCCCN(C)Cc3ccccc3)c3ccccc3c2=O)cc1 | > 11200 nM | 10300 nM | > 100000 nM
14 | Cc1oc2c(c1C(=O)N1CCCC1)C(=O)c1ccccc1C2=O | 2370 nM | 1050 nM | 9860 nM
15 | COc1ccc2nc(C)cc(Nc3ccc(Oc4ccc5ccccc5c4Cl)c(Cl)c3)c2c1 | 100 nM | 491 nM | 64100 nM
16 | CC(c1nc2ccc(Cl)cc2c(=O)n1C)N1CCN(C(=O)C(C)(C)C)CC1 (configuration not stated) | 1470 nM | 860 nM | > 10000 nM
17 | Cc1ccc(NC(=O)C2c3ccccc3C(=O)N(CC(C)C)C2c2cccs2)c(Cl)c1 (configuration not stated) | 305 nM | 191 nM | > 100000 nM
18 | CCOC(=O)c1c(C)oc2c1C(=O)c1ccccc1C2=O | 1960 nM | 710 nM | 49300 nM
19 | O=C1C(=O)N(Cc2cccc3ccccc23)c2ccc(Br)cc21 | > 12500 nM | 4230 nM | > 100000 nM
20 | CCCCCc1ccc(C(=O)NCCCCNc2ccnc3cc(Cl)ccc23)cc1 | 386 nM | 353 nM | > 10000 nM
21 | CN(C)c1ccc(C2N(C)c3ccccc3N2C)cc1 | 913 nM | 551 nM | > 100000 nM
22 | C=C[C@H]1CN2CC[C@H]1C[C@@H]2[C@@H](OC(=O)CC)c1ccnc2ccccc12 | 220 nM | 370 nM | > 10000 nM
23 | COc1cc(-c2cc(C)c3c(OC)ccc(OC)c3n2)cc2c1OCCN(C(=O)CCn1nc(C)cc1C)C2 | 2710 nM | 913 nM | > 100000 nM
24 | COc1cccc(C(C(=O)NC2CCCCC2)N(C(=O)c2snc(C(N)=O)c2N)c2ccc(C)cc2)c1OC (configuration not stated) | 3440 nM | 1400 nM | > 100000 nM
25 | c1cc2c(cc1Nc1c3c(nc4nncn14)CCC3)OCCO2 | 2950 nM | 1480 nM | > 100000 nM

Row | SMILES | EC50 (Plasmodium falciparum [1]) | EC50 (Plasmodium falciparum [2]) | CC50 [3]
26 | CC(=NNC(=O)/C(=C\c1ccc([N+](=O)[O-])cc1)NC(=O)c1ccccc1)c1ccccn1 | 343 nM | 169 nM | > 100000 nM
27 | CC(NCc1cc(-c2ccccc2)ccc1O)c1cccc2ccccc12 (configuration not stated) | 1210 nM | 77.3 nM | > 10000 nM
28 | COc1ccc2[nH]c3c(=O)n(C)cnc3c2c1 | > 1410 nM | 1000 nM | > 10000 nM
29 | CCCCCCc1ccc(C(=O)N(CC(=O)Nc2cc(C(C)(C)C)nn2-c2ccc(Cl)c(Cl)c2)C(C)C)cc1 | 1390 nM | > 752 nM | > 10000 nM
30 | Clc1ccc(-c2c[n+](CCc3ccccc3)c3n2CCC3)cc1 | 380 nM | 299 nM | > 100000 nM
31 | CCOc1ccc(-n2c(=S)sc3c(=O)n(-c4ccc(C)cc4)c(SCC(=O)Nc4cc(OC)ccc4OC)nc32)cc1 | 285 nM | 123 nM | > 100000 nM
32 | CCOC(=O)NC(=O)N1CCC(c2nc(-c3cc(C(C)(C)C)c(O)c(C(C)(C)C)c3)cs2)CC1 | 1660 nM | 1880 nM | > 10000 nM
33 | CN(Cc1cc(-c2ccccc2)ccc1O)CC(O)c1ccccc1 (configuration not stated) | 438 nM | 18.1 nM | > 10000 nM
34 | O=C(O)C=CC(=O)N(C1CCCCC1)C1CCCCC1 | > 12500 nM | 1860 nM | > 100000 nM
35 | COc1ccccc1NC1=CC(=NS(=O)(=O)c2ccc(F)cc2)c2ccccc2C1=O | 375 nM | 431 nM | 20600 nM
36 | COCCNC(=O)c1ccc(NCCc2ccc(Cl)cc2)c(S(=O)(=O)Nc2cccc(C(F)(F)F)c2)c1 | 7340 nM | 6520 nM | > 100000 nM
37 | COc1ccc(OCC(=O)Nc2cccc(NC(=O)COc3ccc(OC)cc3)n2)cc1 | 6840 nM | 2290 nM | > 100000 nM
38 | c1ccc(-c2cc(N3CCOCC3)nc(-c3ccccn3)n2)nc1 | 907 nM | 372 nM | > 10000 nM
39 | CC1(C)CC(NC(=O)C(=O)NC2CC(C)(C)N(O)C(C)(C)C2)CC(C)(C)N1O | > 1300 nM | > 784 nM | > 10000 nM
40 | Cc1ccc(S(=O)(=O)N=C2C=C(Sc3nc4ccccc4[nH]3)C(=O)c3ccccc32)cc1 | 632 nM | 834 nM | 16800 nM
41 | Cc1cc(Nc2ccc(O)cc2)nc2cccc(O)c12 | 468 nM | 407 nM | 52400 nM
42 | Cc1ccc(CN2C[C@H](n3cnnn3)C[C@H]2C(=O)NCCc2cccc(Cl)c2)c(C)c1 | 1320 nM | 1120 nM | > 10400 nM
43 | Nc1ccnc2cc(Cl)ccc12 | 415 nM | 57.6 nM | 72000 nM
44 | Cc1noc(C)c1S(=O)(=O)N(Cc1ccccc1)CC(O)CN1CCC(NC(=O)c2ccc(F)cc2)C1 (configuration not stated) | 447 nM | < 12.1 nM | > 10000 nM
45 | COc1ccc(Cl)cc1NC(=S)NNC(=O)c1cccnc1 | 536 nM | 664 nM | > 100000 nM
46 | Cc1ccc(Cl)cc1N1C(=O)[C@@H]2[C@H](C1=O)C1c3ccccc3C=CN1[C@@H]2C(=O)c1cccs1 (some centres not stated) | 1060 nM | 529 nM | > 10000 nM
47 | COc1cc(C2C(C(=O)OCCc3ccccc3)=C(C)NC3=C2C(=O)CC(c2ccc(Cl)cc2)C3)ccc1OCc1ccccc1 (configuration not stated) | 6940 nM | 1580 nM | > 100000 nM
48 | O=C(Nc1ccc(-c2nc3ccc(NC(=O)c4ccc(Br)cc4)cc3[nH]2)cc1)c1ccc(Br)cc1 | 315 nM | 413 nM | 4190 nM
49 | COC(=O)c1ccc(C2C3=C(CC(c4ccc(OC)cc4)CC3=O)Nc3ccccc3N2C(=O)c2ccccc2)cc1 (configuration not stated) | 427 nM | 368 nM | > 100000 nM
